Experimental data: paper PMC3566143, “Pantothenamides Are Potent, On-Target Inhibitors of Plasmodium falciparum Growth When Serum Pantetheinase Is Inactivated” (PLoS ONE, 2013)
Like-named read-outs stand apart in the source and are kept apart here.

What was measured:
[1] = tested on: erythrocytic stage P. falciparum parasites (strain 3D7); assay: SYBR Green I-based in vitro growth assay (96 h); assay type: cell-based, Plasmodium falciparum; details: for IC50: Plasmodium falciparum, 96 h
Procedure: Erythrocytic stage P. falciparum parasites (strain 3D7) were maintained within human erythrocytes in continuous culture essentially as described previously, [25]. P. falciparum-infected erythrocytes were routinely cultured in RPMI 1640 medium supplemented with 25 mM HEPES, 20 mM D-glucose, 200 µM hypoxanthine, 24 mg/L gentamycin and Albumax II (0.6%, w/v), which, hereafter is referred to as Albumax-complete RPMI. For several days prior to carrying out the assays testing the effect of compounds on the growth of P. falciparum in medium supplemented with human serum (instead of Albumax II), the parasites were cultured in the same medium mentioned above, except that human serum (10%, v/v, pooled from different blood donors) was used rather than Albumax II. This medium is hereafter referred to as human serum-complete RPMI.
The in vitro antiplasmodial activity of test compounds was determined using the malaria SYBR Green I-based fluorescence assay described by Smilkstein et al., with minor modifications. Briefly, P. falciparum-infected erythrocytes were incubated in culture medium containing two-fold dilutions of the test compounds in 96-well microtiter plates. Assays were initiated with ring-stage P. falciparum-infected erythrocytes at a hematocrit and parasitemia of 1%. Wells containing infected erythrocytes in the presence of chloroquine (0.25–2 µM) served as zero growth controls and wells containing infected erythrocytes in the absence of chloroquine or test compounds served as 100% parasite growth controls. Plates were incubated at 37°C under an atmosphere of 96% nitrogen, 3% carbon dioxide and 1% oxygen for 96 h, before 100 µL from each well was mixed with 100 µL of SYBR Safe DNA gel stain (0.2 µL/mL) in 20 mM Tris, pH 7.5, 5 mM ethylenediaminetetraacetic acid (EDTA), 0.008% (w/v) saponin, 0.08% (v/v) Triton X-100, in a second 96-well microtitre plate. Fluorescence was measured using a FLUOstar OPTIMA multidetection microplate reader from BMG LABTECH with excitation and emission wavelengths of 490 and 520 nm, respectively. The 50% inhibitory concentration (IC50) of each test compound under each test condition was calculated by fitting the data to a sigmoidal curve (typically y = a/(1+ (x/x0)^b) using nonlinear least squares regression (SigmaPlot, Systat Software) and averaging the IC50 estimates from independent experiments.
The antiplasmodial activity of test compounds was assessed in media that had been subjected to different pre-incubations. “Fresh” medium refers to medium that was stored for a maximum of 48 h at 4°C, and incubated at 37°C for a maximum of 1 h, prior to use. “Aged” medium refers to medium that was stored for a minimum of one week at 4°C and incubated intermittently at 37°C, or medium incubated continuously at 37°C for 40 h soon after preparation. As indicated at the relevant positions within the “Results” section, for some experiments the fresh medium used was, more specifically, medium used immediately following preparation, and the aged medium used was, more specifically, medium that was incubated at 37°C for 40 h immediately prior to use.

[2] = biological target: T1, recombinant human pantetheinase (Vanin-1) (Homo sapiens, UniProt O95497); assay: fluorescamine-based pantothenamide hydrolysis assay with recombinant pantetheinase; assay type: in vitro ADME; details: 200 µM compound, same conditions with water instead of enzyme
T1 construct: purchased Novoprotein Scientific Inc. (Short Hills, New Jersey, USA)
T1 sequence (O95497 22-513): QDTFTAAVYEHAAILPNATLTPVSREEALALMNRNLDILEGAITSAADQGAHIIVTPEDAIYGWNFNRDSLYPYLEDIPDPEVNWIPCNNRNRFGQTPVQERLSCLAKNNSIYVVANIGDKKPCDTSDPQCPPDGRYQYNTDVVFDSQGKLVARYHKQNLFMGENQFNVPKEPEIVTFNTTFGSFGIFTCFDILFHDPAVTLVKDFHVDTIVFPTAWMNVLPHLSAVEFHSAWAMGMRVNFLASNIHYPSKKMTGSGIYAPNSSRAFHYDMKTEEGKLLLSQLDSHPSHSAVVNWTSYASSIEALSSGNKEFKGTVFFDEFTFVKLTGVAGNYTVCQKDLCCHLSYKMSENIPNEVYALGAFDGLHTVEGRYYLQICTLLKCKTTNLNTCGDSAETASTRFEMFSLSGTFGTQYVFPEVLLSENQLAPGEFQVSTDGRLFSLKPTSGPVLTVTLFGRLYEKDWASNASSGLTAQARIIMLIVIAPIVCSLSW
Procedure: Hydrolysis of compound 12 to pantothenate and isobutylamine was measured using a modification of a fluorescence-based assay described previously for the measurement of N-acetyl-1-D-myo-inosityl-2-amino-2-deoxy-α-D-glucopyranoside deacetylase activity, [31]. The assay utilizes fluorescamine (4-phenylspiro-[furan-2(3H),1-phthalan]-3,3′-dione; a non-fluorescent molecule that reacts with primary amines to form a fluorescent product) for the detection of primary amines. Briefly, recombinant human pantetheinase (at a final concentration of 100 ng/mL), Albumax II (at a final concentration 0.6%, w/v), or an equivalent volume of water, was added to solutions (at 37°C) of 100 mM potassium phosphate, pH 7.5, 0.5 mM dithiothreitol, 0.01% (w/v) bovine serum albumin, 0.1% (v/v) DMSO, with or without pantothenamide (at a final concentration of 200 µM). At the appropriate time points, aliquots (30 µL) of the reaction mixtures were removed in duplicate and mixed with 10 µL 20% (v/v) trichloroacetic acid to terminate the reaction. […] The plate was then incubated at 37°C for 10 min before fluorescence was measured using a FLUOstar OPTIMA multidetection microplate reader from BMG LABTECH with excitation and emission wavelengths of 390 and 485 nm, respectively. The fluorescence detected was converted to the corresponding isobutylamine concentration using an isobutylamine standard curve. […]

CC(C)CNC(=O)CCNC(=O)[C@H](O)C(C)(C)CO [Compound 12]
IC50 ([1]; 3D7, 96 h, fresh Albumax-complete RPMI, 1 µM pantothenate, read-out: IC50 against P. falciparum, fresh medium, 1 μM pantothenate): 133 ± 12 µM | IC50 ([1]; 3D7, aged Albumax-complete RPMI (37°C for 40 h), 1 µM pantothenate, read-out: IC50 against P. falciparum, aged medium, 1 μM pantothenate): 1.1 ± 0.1 µM | IC50 ([1]; 3D7, human serum (10%, v/v) medium incubated at 37°C for 40 h, read-out: IC50 against P. falciparum in aged human serum-complete RPMI): 22 ± 10 µM | increase in potency after second ageing of Albumax II-supplemented aged medium ([1]; aged + Albumax II + 40 h at 37°C versus aged + fresh Albumax II): > 65 fold | effect of recombinant human pantetheinase on antiplasmodial effect in aged medium ([1]; aged Albumax-complete RPMI + 100 ng/mL recombinant human pantetheinase added at start of assay): alleviated the antiplasmodial effect | fold-increase in IC50 following supplementation with 100 µM pantothenate, aged medium ([1]; aged Albumax-complete RPMI, IC50 at 100 µM pantothenate / IC50 at 1 µM pantothenate): 21±1 times | effect on parasite growth in aged Albumax-complete RPMI with additional Albumax II ([1]; aged medium + additional Albumax II (0.6%, w/v) immediately prior to assay, 200 µM): little-to-no effect on parasite growth | effect on parasite growth at 200 µM in aged Albumax-complete RPMI ([1]; aged medium, 200 µM): inhibits parasite growth completely | fold-increase in IC50 following supplementation with 100 µM pantothenate, fresh medium ([1]; fresh Albumax-complete RPMI, IC50 at 100 µM pantothenate / IC50 at 1 µM pantothenate): 1.3±0.2 times | effect on parasite growth in fresh human serum-complete RPMI ([1]; human serum (10%, v/v), fresh medium, up to 200 µM (highest concentration tested)): little-to-no effect on parasite growth | hydrolysis in the absence of pantetheinase [2]: not observed
